No end group written: not given here.
Columns and labels:
[1] = Stability of peptides in serum, remaining activity read in intestinal cells; format: in vitro ADME, Bovine; settings: octapeptides; fraction of peptide activity left after 10 min of incubation in serum at 37° C. compared with undigested sample
Experimental: All peptides were incubated at 10^−5 M with Fetal Bovine Serum (FBS; final concentration of 66.7%) (Sigma Aldrich, Denmark) at 37° C. for 3 hours. The peptide degradation was terminated using 1 M phosphoric acid (final 0.4 M, pH˜1.2) and neutralized to pH 7.2-7.4 with NaOH before testing activity in intestinal cells. As for small intestine homogenates, a zero degradation control was included for each peptide.
DC7-2, NT, DKPYIL and NT-(8-13) (final concentration of 10^−6 M) were incubated either with FBS or with 270× diluted intestinal homogenate at 37° C. for various time points with shaking. Degradation was stopped with 1 M phosphoric acid and the samples were subsequently neutralized and immediately tested with intestinal cells as described above. Control for zero degradation was included for each peptide as above.
(§1) The 20 hexapeptides with systematic N-terminal substitutions (X-KPYIL) (Schafer-N, Denmark) and NT (8-13) was incubated at 10^−6 M in either FBS for 10 minutes or with 270× diluted intestinal homogenate for 30 minutes at 37° C. with shaking. The degradation was stopped with 1 M phosphoric acid. Peptide solutions were neutralized with NaOH (pH 7.2-7.4), diluted and immediately tested for bioactivity using murine intestinal cells. Determination of EC50 for stimulation of cells allowed calculation of recovered peptide.

gastric pepsin = gastric pepsin (Homo sapiens, UniProt P0DJD8); experiment: Stability studies of DC7-2: pepsin; format: in vitro ADME
chymotrypsin = chymotrypsin (Homo sapiens, UniProt P17538); experiment: Stability studies of DC7-2: chymotrypsin; format: in vitro ADME
[2] = Stability of peptides ex vivo in rodent intestine; format: in vitro ADME, mouse or rat; settings: rodent intestine model of degradation
Experimental: 0,001 mg/ml of the indicated peptides were incubated with pieces of rodent intestine (mouse and rat intestine gave similar results) for up to 10 minutes at 37° C. Recovery of activity was tested with dose-response curves as indicated.
FIG. 9. Stability of peptides in rodent intestine. EC50 values for different peptides and different incubation times were calculated from FIG. 8 and recovered activity plotted as a function of time.
Peptides are degraded by proteases in the gastrointestinal tract. However the speed of this degradation depends on the sequence of the peptide. In order to measure stability of the […] peptide series and to compare with e.g. RRKPYIL, 10 or 50 mg (wet weight) of mouse or rat intestinal tissue (distal ileum) was equilibrated in V-bottom 24 well plates in 800 μl HBSS, 25 mM HEPES, pH 7.4 at 37° C. with shaking at 350 rpm. Identical amounts of different peptides (final concentration of 1 μg/ml) were added to the intestinal pieces and incubation continued. At various time points, 100 μl aliquots were removed and diluted into whey protein hydrolysate (final concentration of 10 mg/ml) to non-specifically compete protease activity. Peptide solutions were then diluted and tested for bioactivity (FIG. 8). Peptides incubated under same conditions but in absence of intestine served as controls (no degradation). […]

trypsin = trypsin (Homo sapiens, UniProt P07477); experiment: Stability studies of DC7-2: trypsin; format: in vitro ADME
carboxypeptidases = experiment: Stability studies of DC7-2: carboxypeptidases; format: in vitro ADME
murine intestinal cells = murine intestinal cells (Mus musculus, UniProt O88319); experiment: Ca2+ flux / calcium response assay (cell signaling activity); format: cell-based
Experimental: Ca^2+ Flux Assay/Calcium Response Assay:
Elevation of intracellular calcium level was measured using the fluorescent calcium chelating dye Fluo-4 AM (ThermoFischer Scientific, Denmark). Briefly, cells were grown as a monolayer in 96-well tissue culture plates (Sarstedt, Germany) to near confluence in appropriate growth medium as described in the cell culture section.
All test compounds were dissolved in water, and then diluted in 1×HBSS containing 25 mM HEPES (pH 7.4), 1% BSA and 2% ink. […]

[3] = Stability of peptides in intestine homogenate, remaining activity read in intestinal cells; format: in vitro ADME, mice; settings: octapeptides; % activity left after 30 min incubation in intestine homogenate at 37° C.
Experimental: Small intestines from 20 Swiss-Webster males were homogenized in 350 ml Dulbecco's phosphate-buffered saline (PBS) (pH 7.4) (ThermoFischer Scientific, Denmark) with a IKA® basic 18 Ultra-Turrax tissue homogenizer set a speed 5 followed by filtration using 100 μm nylon mesh filter. Protein concentration was 6 mg/ml using the bicinconinic acid assay (ThermoFischer Scientific, Denmark) and bovine serum albumin as standard. The intestine homogenate was diluted 10 times in HBSS containing 25 mM HEPES (pH 7.4), and further diluted 30×, 90×, 270×, 810× or 2430× before incubation with peptides. All solutions were prewarmed to 37° C. before mixing with peptide solutions.
Peptides were incubated at 10^−5 M with dilutions of small intestine homogenate at 37° C. for 90 minutes with shaking. Reactions were stopped by addition of 1 M phosphoric acid (final 0.4 M, pH˜1.2). Each peptide incubation mix was then neutralized with NaOH to pH 7.2-7.4 and immediately tested for activity in intestinal cells. Control for zero degradation, i.e. addition of 1 M phosphoric acid prior to addition of intestine homogenate, was included for each peptide. […]
as §1

carboxypeptidase = experiment: Carboxypeptidase activity in pancreatin (Hippuryl-L-phenylalanine); format: biochemical, porcine; settings: 0.1 mg/ml pancreatin (FIG. 23D)
Source text: FIG. 23. Enzymes in intestine homogenate and pancreatin.

[4] = molecular target: T1, commercial carboxypeptidase inhibitor (CPI) from Potato tuber (UniProt P01075)
T1 sequence: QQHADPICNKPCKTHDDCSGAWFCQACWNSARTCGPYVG

[5] = molecular target: T2, trypsin inhibitor T9253 from chicken egg white, P01005
T2 chain: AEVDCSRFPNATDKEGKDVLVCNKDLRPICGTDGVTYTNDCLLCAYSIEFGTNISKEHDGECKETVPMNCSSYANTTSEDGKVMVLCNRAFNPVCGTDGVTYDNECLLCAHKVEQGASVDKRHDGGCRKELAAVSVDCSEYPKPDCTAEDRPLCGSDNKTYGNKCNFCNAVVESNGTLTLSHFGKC

[6] = molecular target: T3, trypsin inhibitor, T9128 from soybean, P01070
T3 chain: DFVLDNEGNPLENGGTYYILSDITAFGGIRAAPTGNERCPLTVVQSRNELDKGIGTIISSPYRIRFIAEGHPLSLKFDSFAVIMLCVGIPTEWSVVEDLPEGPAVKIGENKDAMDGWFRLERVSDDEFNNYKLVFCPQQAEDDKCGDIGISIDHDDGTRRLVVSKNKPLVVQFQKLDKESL

Chain of chymotrypsin (P17538 19-263): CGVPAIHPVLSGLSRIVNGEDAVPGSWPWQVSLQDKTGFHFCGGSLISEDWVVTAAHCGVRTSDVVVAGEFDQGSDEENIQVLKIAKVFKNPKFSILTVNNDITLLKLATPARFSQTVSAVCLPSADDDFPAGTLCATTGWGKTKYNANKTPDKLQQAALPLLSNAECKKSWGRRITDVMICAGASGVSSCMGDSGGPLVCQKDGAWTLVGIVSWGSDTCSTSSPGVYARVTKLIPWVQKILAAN
Chain of murine intestinal cells (O88319 whole entry): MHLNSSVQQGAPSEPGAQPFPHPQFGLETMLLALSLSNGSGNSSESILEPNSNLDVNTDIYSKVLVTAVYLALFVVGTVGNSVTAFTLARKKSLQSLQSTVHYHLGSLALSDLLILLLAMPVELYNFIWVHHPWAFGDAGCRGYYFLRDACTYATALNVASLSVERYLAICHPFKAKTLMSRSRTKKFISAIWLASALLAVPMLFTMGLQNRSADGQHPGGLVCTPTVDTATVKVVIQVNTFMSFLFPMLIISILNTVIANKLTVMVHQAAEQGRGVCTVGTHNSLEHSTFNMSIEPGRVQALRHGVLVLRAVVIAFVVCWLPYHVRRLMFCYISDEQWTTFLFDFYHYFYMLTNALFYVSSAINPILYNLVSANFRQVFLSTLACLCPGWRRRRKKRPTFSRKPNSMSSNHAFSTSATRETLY
Chain of gastric pepsin (P0DJD8 63-388): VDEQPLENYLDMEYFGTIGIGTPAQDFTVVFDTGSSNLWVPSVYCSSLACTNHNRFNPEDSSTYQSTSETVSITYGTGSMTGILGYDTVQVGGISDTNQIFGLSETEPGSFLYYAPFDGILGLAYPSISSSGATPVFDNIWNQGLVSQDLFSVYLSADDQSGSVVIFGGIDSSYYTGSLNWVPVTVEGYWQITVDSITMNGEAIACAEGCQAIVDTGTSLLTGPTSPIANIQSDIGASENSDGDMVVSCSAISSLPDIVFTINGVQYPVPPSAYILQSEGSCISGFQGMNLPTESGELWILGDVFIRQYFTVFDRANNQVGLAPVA

ASDKPYIL [Peptide 36036, A SDKPYIL]
Stability in serum (activity remaining) [1]: 0.0988
degradation by gastric pepsin (gastric pepsin): resilient
sensitivity to chymotrypsin (chymotrypsin): sensitive
stability compared with the active fragment of neurotensin [2]: 100-1000 times
sensitivity to trypsin (trypsin): sensitive
sensitivity to carboxypeptidases (carboxypeptidases): sensitive
EC50 (murine intestinal cells): 3.51 nM
Stability in intestine (activity remaining) [3]: 6.0%

CPI: commercial carboxypeptidase inhibitor from Potato tuber (QQHADPICNKPCKTHDDCSGAWFCQACWNSARTCGPYVG)
carboxypeptidase activity (carboxypeptidase): efficiently suppressed

carboxypeptidase in porcine pancreatin
carboxypeptidase activity (Hippuryl-L-phenylalanine substrate, slope of kinetic absorbance) [4]: carboxypeptidase activity, which was efficiently suppressed by a commercial carboxypeptidase inhibitor (CPI) from Potato tuber

B1: trypsin in porcine pancreatin (protein)
chain: IVGGYTCAANSIPYQVSLNSGSHFCGGSLINSQWVVSAAHCYKSRIQVRLGEHNIDVLEGNEQFINAAKIITHPNFNGNTLDNDIMLIKLSSPATLNSRVATVSLPRSCAAAGTECLISGWGNTKSSGSSYPSLLQCLKAPVLSDSSCKSSYPGQITGNMICVGFLEGGKDSCQGDSGGPVVCNGQLQGIVSWGYGCAQKNKPGVYTKVCNYVNWIQQTIAAN
trypsin activity (conversion of L-BAPA, slope of kinetic absorbance) [5]: Intestinal and pancreatic trypsin activity was inhibited in a dose-dependent manner by two specific trypsin inhibitors from soybean and chicken egg white, respectively
trypsin activity (conversion of L-BAPA, slope of kinetic absorbance) [6]: Intestinal and pancreatic trypsin activity was inhibited in a dose-dependent manner by two specific trypsin inhibitors from soybean and chicken egg white, respectively
